# Source: paper PMC6418145 (Scientific Reports, 2019)
# Tests used:
# [1] = Pharmacokinetics in plasma, CSF and cortical brain tissue after i.p. injection; details: mice; for mean concentration in brain: cortical tissue
# Method: Blood (approximately 100 µl) was collected from the vena facialis in anaesthetised animals, followed by CSF sampling (approximately 10 µl) from the cisterna magna under pentobarbital anaesthesia (1:25 in saline, 10 ml/kg, i.p., Narcoren, Boehringer Ingelheim, Germany). Subsequently, the brain was removed and its anterior third (including the medial prefrontal and anterior cingulate cortices) dissected and transferred into Precellys tubes cooled in liquid nitrogen. For plasma extraction, blood was transferred to EDTA coated tubes and centrifuged for 10 min at 10,000 rpm at 4 °C. Maximal plasma concentration (Cmax), time taken to reach maximal plasma concentration (Tmax) and mean residence time were assessed using liquid chromatography–mass spectrometry analysis executed on the HP1200 (Agilent, CA, USA) coupled to the API 6500 (AB Sciex, Germany) using BI00001052 (Boehringer Ingelheim) as internal standard. In short, 5 µl of plasma or CSF sample were mixed with 10 nl internal standard. 70 µl acetonitrile (ACN)/methanol (1:1) was added, kept at −20 °C for 15 min and centrifuged for 4 min at 4000 rpm at 4 °C. 30 µl of the supernatant was mixed with 170 µl 0.1% formic acid. Brain homogenization was executed by Precellys Evolution (Bertin) after adding ACN/methanol (1:1)/aq.dest. (3:1) to each brain sample with a volume corresponding to 4 parts of the brain weight, followed by centrifugation for 1 min at 4000 rpm at 4 °C. 5 µl of the supernatant was mixed with 10 nl of internal standard.
# D2 dopamine receptor = target: T1, D2 dopamine receptor (Homo sapiens, UniProt P14416); assay: Off-target radioligand binding; details: 10 μM compound
# T1 construct: expressed in transfected cells; host or cells: HEK-293 or CHO
# D1 dopamine receptor = target: T2, D1 dopamine receptor (Homo sapiens, UniProt P21728); assay: Off-target radioligand binding; details: 10 μM compound
# T2 construct: expressed in transfected cells; host or cells: HEK-293 or CHO
# α1A adrenoreceptor = target: T3, α1A adrenoreceptor (Homo sapiens, UniProt P35348); assay: Off-target radioligand binding; details: 10 μM compound
# T3 construct: expressed in transfected cells; host or cells: HEK-293 or CHO
# T3 sequence (P35348 whole entry): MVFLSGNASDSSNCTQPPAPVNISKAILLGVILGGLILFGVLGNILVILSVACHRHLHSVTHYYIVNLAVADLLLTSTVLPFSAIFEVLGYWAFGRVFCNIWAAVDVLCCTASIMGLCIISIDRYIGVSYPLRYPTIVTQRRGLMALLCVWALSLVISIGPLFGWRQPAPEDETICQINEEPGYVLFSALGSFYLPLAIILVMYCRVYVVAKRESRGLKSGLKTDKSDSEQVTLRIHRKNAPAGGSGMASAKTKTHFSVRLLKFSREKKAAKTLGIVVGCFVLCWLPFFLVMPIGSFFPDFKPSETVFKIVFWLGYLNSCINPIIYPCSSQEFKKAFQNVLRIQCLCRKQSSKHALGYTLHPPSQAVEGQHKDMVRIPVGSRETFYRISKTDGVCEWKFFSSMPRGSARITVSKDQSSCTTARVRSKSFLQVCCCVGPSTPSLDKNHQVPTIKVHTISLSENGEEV
# Lck kinase = Lck kinase (Homo sapiens, UniProt P06239); assay: Off-target enzyme assay; format: biochemical; details: 10 μM compound, not shown
# M1 muscarinic receptor = target: T4, M1 muscarinic receptor (Homo sapiens, UniProt P11229); assay: Off-target radioligand binding; details: 10 μM compound
# T4 construct: expressed in transfected cells; host or cells: HEK-293 or CHO
# [2] = target: T5, 5-HT1A serotonin receptor (Homo sapiens, UniProt P08908); assay: Off-target radioligand binding; details: 10 μM compound
# T5 construct: expressed in transfected cells; host or cells: HEK-293 or CHO
# H1 histamine receptor = target: T6, H1 histamine receptor (Homo sapiens, UniProt P35367); assay: Off-target radioligand binding
# T6 construct: expressed in transfected cells; host or cells: HEK-293 or CHO
# T6 sequence (P35367 whole entry): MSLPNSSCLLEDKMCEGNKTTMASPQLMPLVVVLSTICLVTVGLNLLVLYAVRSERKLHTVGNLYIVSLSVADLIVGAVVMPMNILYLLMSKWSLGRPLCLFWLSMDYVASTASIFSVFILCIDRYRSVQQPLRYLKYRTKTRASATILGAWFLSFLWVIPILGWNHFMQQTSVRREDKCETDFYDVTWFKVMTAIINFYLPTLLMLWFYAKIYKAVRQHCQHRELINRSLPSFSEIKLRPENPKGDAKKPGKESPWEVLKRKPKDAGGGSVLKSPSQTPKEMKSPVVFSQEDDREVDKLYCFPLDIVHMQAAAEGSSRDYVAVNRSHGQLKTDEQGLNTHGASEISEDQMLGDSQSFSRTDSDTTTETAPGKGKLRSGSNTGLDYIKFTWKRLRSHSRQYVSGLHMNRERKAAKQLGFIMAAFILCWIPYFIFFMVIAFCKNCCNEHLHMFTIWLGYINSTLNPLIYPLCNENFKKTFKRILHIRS
# M3 muscarinic receptor = target: T7, M3 muscarinic receptor (Homo sapiens, UniProt P20309); assay: Off-target radioligand binding; details: 10 μM compound
# T7 construct: expressed in transfected cells; host or cells: HEK-293 or CHO
# T7 sequence (P20309 whole entry): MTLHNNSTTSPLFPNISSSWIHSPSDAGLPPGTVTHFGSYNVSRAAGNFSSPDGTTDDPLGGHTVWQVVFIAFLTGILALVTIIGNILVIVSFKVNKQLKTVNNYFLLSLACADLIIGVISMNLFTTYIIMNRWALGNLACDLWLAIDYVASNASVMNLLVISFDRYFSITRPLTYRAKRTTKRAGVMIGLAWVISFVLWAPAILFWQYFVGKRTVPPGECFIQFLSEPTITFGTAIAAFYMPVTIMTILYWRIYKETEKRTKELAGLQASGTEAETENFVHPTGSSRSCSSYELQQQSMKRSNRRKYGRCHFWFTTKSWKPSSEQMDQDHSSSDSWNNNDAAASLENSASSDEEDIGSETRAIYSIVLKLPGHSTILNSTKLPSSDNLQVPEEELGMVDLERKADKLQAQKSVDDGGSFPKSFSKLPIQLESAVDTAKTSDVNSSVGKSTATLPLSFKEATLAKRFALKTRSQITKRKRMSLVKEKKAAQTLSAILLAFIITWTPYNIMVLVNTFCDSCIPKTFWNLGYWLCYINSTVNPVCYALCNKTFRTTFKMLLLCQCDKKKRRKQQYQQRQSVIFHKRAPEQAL
# hM3Dq = test system: hM3Dq; set-up: method as in PMID 25587888; details: FLIPR assay; cited from earlier work
# [3] = target: T8, 5-HT2B serotonin receptor (Homo sapiens, UniProt P41595); assay: Off-target radioligand binding
# T8 construct: expressed in transfected cells; host or cells: HEK-293 or CHO
# T8 sequence (P41595 whole entry): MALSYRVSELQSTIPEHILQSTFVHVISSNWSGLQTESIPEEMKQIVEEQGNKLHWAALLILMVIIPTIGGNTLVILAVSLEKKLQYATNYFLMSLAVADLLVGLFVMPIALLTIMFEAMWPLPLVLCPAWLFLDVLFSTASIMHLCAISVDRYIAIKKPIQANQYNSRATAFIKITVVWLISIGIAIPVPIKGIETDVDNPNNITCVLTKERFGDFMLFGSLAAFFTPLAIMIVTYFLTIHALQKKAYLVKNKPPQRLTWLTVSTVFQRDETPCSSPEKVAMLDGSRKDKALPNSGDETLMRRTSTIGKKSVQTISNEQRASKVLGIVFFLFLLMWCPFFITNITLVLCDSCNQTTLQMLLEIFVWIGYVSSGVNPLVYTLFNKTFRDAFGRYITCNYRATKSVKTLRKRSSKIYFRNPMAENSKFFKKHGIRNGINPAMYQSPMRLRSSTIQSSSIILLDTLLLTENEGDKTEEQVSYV
# α2A adrenoreceptor = target: T9, α2A adrenoreceptor (Homo sapiens, UniProt P08913); assay: Off-target radioligand binding; details: 10 μM compound
# T9 construct: expressed in transfected cells; host or cells: HEK-293 or CHO
# T9 sequence (P08913 whole entry): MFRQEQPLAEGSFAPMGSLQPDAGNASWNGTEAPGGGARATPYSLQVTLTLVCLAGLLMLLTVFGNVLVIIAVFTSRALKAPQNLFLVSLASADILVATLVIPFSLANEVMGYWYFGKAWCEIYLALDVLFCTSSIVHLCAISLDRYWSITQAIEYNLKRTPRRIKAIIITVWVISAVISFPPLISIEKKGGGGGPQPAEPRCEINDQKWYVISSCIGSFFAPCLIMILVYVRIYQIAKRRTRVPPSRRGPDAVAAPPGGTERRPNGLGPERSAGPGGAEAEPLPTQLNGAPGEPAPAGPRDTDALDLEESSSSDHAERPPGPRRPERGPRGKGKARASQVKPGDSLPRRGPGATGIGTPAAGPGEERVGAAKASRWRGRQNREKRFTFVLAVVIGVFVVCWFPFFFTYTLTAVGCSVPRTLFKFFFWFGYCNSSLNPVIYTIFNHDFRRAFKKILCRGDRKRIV
# hM4Di = target: T10, hM4Di (Homo sapiens, UniProt P08173, A203G/Y113C); assay: FLIPR Ca2+ oscillation assay in primary rat neuronal cultures transduced with hM4Di; format: cell-based
# T10 construct: expressed in transfected cells; host or cells: primary cortical neurons of embryonic (E18) Sprague-Dawley rats, AAV-transduced
# T10 sequence (P08173 1-479 Y113C/A203G): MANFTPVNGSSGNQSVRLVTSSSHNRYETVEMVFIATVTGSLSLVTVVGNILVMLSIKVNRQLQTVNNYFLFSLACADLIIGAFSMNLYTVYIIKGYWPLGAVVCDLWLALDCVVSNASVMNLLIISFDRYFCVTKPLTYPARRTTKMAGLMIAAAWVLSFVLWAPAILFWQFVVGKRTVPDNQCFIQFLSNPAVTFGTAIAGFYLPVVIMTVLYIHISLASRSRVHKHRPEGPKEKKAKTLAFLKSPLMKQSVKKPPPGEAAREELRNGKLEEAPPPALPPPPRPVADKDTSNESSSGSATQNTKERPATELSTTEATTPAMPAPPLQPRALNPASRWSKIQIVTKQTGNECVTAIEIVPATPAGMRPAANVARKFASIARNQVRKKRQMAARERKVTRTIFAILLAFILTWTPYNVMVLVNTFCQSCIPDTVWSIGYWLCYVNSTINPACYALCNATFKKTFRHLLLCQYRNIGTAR
# Method: Briefly, cortices were dissected from embryonic brains, meninges were removed, and cortices transferred into ice-cold dissociation buffer (2 mM kynurenic acid, 10 mM HEPES, 20 mM MgCl2 (Fluka, Germany) and 33.4 mM Glucose in Hank’s Balanced Salt Solution (HBSS), pH 7.4 (Gibco, Thermo Fischer Scientific, Massachusetts, USA). Cortices were then dissociated in 20 units/ml papain solution (5.5 mM L- Cysteine hydrochloride, 1.1 mM ethylenediamine tetra-acetic acid [EDTA], 0.067 mM 2-Mercaptoethanol in Minimum Essential Medium [MEM]) for 15 min at 37 °C. Cortices were washed twice by adding 20 ml plating medium (1:50 foetal calve serum, 1:100 penicillin/streptomycin and 1:100 GlutaMax in MEM) followed by cell filtration using a 70 µm cell strainer (Corning, model #352350, Merck, Germany) to obtain a single-cell suspension. Dissociated cells were re-suspended in serum-free Neurobasal medium with Glutamax and B27 supplement (Gibco) and plated on PDL-coated 96 MTPs (Corning #356640). Virus (ssAAV-1/2-hSyn1-hM4D[Gi]_mCherry-WPRE-hGHp[A]) transduction was performed immediately after plating. Cells were maintained at 37 °C (5% CO2 and 10% O2) in a humidified incubator. A half feed medium change was done on DIV8. Final assay conditions used for evaluating activity of compounds were 0.95 × 10^5 cells/cm^2, transduced with 10.000 multiplicity of infection and measured on DIV9.
# Medium was removed and cells were incubated in assay buffer (HBSS, Gibco, 10 mM HEPES, pH 7.4) containing 4 µM Fluo-4AM (Thermo Fischer Scientific) and 0.1% Pluronic F-127 (Thermo Fischer Scientific #P3000MP) for 1 h at room temperature in the dark. Loading buffer was then replaced with assay buffer. After 10 min, assay plates were measured in the FLIPR tetra (Molecular Devices, California, USA) using green fluorescence filter settings (excitation 470–495 nm, emission 515–575 nm). Fluorescence signals were recorded at 1 s intervals (0.4 s exposure time). Compound addition was automated in a single addition protocol. Tested compounds (concentrations:0.3 nM–1 µM; retigabine at 30 µM) were added after recording a baseline response for 5 min followed by another 5 min for recording compound effects on Ca^2+ oscillations. Each compound dose was repeated on three individual plates in duplicates.
# Time-series raw fluorescence traces recorded from the FLIPR assay were analysed by detecting Ca^2+ peaks based on a fixed amplitude threshold[19]. The change in oscillation frequency was determined by counting the number of peaks in a defined time interval (5 min) before and after addition of the tested compound and calculating the Ca^2+ oscillations frequency from their number. […] For visualisation, all data were transferred to GraphPad Prism 7 (Graphpad Software, Inc., CA, USA).
# PDE4D2 = PDE4D2 (Homo sapiens, UniProt Q08499); assay: Off-target enzyme assay; format: biochemical; details: 10 μM compound, not shown
# Chain of PDE4D2 (Q08499 303-809): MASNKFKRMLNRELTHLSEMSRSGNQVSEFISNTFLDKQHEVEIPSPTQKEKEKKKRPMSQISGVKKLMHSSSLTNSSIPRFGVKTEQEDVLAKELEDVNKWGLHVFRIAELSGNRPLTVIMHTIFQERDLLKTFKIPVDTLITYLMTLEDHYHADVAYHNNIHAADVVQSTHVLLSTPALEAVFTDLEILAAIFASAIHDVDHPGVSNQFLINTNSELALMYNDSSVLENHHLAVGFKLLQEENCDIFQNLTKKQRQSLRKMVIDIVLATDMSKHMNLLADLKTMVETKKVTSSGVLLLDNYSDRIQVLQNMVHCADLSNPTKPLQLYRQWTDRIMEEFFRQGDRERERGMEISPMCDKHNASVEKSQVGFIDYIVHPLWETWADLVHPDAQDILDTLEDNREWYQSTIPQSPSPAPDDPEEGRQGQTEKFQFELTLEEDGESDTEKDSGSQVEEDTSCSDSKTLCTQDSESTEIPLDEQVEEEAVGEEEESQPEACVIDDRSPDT
# AChE = AChE (Homo sapiens, UniProt P22303); details: 10 μM compound, not shown
# Chain of AChE (P22303 32-614): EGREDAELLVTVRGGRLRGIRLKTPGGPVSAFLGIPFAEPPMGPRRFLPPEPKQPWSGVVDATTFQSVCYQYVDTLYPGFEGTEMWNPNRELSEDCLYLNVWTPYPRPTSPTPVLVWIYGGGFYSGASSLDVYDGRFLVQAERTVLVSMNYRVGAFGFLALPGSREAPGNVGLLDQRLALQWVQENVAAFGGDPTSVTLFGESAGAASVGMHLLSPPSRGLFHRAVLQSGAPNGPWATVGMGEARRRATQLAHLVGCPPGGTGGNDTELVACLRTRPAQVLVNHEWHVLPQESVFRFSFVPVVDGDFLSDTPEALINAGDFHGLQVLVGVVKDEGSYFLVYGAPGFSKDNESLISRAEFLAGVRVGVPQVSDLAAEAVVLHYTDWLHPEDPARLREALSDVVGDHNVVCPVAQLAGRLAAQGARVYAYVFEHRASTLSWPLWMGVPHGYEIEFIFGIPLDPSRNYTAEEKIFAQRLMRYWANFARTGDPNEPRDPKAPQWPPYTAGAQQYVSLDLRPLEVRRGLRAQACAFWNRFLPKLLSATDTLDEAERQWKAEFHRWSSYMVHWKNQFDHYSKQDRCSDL
# [4] = target: human M4 muscarinic receptor (Homo sapiens, UniProt P08173); assay: Potency at parent receptor of hM4Di; format: cell-based; details: data not shown
# Chain of human M4 muscarinic receptor (P08173 whole entry): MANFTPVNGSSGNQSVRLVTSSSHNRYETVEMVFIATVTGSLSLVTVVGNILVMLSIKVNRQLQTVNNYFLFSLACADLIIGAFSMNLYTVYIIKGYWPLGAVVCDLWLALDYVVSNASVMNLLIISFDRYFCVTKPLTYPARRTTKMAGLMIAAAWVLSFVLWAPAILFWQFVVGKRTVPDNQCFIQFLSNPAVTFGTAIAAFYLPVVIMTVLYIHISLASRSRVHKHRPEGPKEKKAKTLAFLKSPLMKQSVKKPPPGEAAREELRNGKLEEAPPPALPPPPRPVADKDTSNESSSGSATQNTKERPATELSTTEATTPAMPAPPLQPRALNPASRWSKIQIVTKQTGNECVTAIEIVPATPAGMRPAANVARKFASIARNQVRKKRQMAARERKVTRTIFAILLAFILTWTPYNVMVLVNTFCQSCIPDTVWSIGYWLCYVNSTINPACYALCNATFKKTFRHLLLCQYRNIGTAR
# COX1 = COX1 (Homo sapiens, UniProt P23219); assay: Off-target enzyme assay; format: biochemical; details: 10 μM compound, not shown
# M2 muscarinic receptor = target: T11, M2 muscarinic receptor (Homo sapiens, UniProt P08172); assay: Off-target radioligand binding; details: 10 μM compound
# T11 construct: expressed in transfected cells; host or cells: HEK-293 or CHO
# T11 sequence (P08172 whole entry): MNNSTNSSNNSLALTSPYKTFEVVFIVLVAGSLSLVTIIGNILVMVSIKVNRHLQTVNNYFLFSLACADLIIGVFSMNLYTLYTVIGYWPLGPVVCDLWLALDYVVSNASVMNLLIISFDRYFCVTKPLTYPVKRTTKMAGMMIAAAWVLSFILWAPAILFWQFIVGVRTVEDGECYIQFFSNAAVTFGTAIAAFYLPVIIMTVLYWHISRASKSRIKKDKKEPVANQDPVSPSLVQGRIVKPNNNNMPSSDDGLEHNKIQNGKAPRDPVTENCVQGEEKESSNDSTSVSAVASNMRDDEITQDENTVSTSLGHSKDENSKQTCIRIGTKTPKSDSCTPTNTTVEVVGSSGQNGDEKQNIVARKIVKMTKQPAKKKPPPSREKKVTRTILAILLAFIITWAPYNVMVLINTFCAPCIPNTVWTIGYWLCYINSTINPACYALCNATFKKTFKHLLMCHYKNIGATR
# COX2 = COX2 (Homo sapiens, UniProt P35354); assay: Off-target enzyme assay; format: biochemical; details: 10 μM compound, not shown
# [5] = 15 min after i.p. 3.5 mg/kg CNO
# [6] = 30 min after i.p. 3.5 mg/kg CNO
# [7] = 60 min after i.p. 3.5 mg/kg CNO
# T1 sequence (P14416 1-414 isoform P14416-2): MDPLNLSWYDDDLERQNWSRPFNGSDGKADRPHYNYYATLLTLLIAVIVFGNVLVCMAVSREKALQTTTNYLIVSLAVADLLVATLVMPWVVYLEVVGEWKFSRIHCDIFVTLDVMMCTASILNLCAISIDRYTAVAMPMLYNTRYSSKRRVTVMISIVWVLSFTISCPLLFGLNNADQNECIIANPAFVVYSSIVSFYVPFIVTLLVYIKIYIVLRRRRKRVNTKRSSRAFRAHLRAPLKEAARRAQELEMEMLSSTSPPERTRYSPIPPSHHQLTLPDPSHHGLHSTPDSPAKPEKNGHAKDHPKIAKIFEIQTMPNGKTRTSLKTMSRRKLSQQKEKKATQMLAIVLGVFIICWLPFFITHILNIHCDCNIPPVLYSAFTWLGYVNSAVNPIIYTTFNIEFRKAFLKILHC
smiles,measurement,setting,value
"C[N+]1([O-])CCN(C2=Nc3cc(Cl)ccc3Nc3ccccc32)CC1 [CNO, clozapine-N-oxide]",brain concentration by linear extrapolation,[1]; 10 mg/kg CNO,≤ 70 nM
same,free (CSF) level by linear extrapolation,[1]; 10 mg/kg CNO,≤ 30 nM
same,mean CNO concentration as % of the CLZ concentration in plasma,[1]; 15 min after i.p. 1 mg/kg CLZ,approximately 1.1%
same,mean concentration in CSF,[1]; [5],11.2 nM
same,mean concentration in CSF,[1]; [6],10.8 nM
same,free level (CSF),[1]; [7],~4.05 nM
same,detection at all other time points and in the other sample types,"[1]; after i.p. 1 mg/kg CLZ, other than plasma at 15 min",no CNO was detectable
same,mean concentration in brain,[1]; [5],23.8 nM
same,mean concentration in brain,[1]; [6],18.5 nM
same,mean concentration in brain,[1]; [7],could not be detected
same,competitive inhibition of ligand binding,D2 dopamine receptor,over 50%
same,competitive inhibition of ligand binding,D1 dopamine receptor,over 50%
same,competitive inhibition of ligand binding,α1A adrenoreceptor,over 50%
same,inhibition,Lck kinase,< 20%
same,competitive inhibition of ligand binding,M1 muscarinic receptor,over 50%
same,competitive inhibition of ligand binding,[2],over 50%
same,competitive inhibition of ligand binding,H1 histamine receptor; 10 μM compound,over 50%
same,Ki,H1 histamine receptor; bound stated in discussion,< 100 nM
same,competitive inhibition of ligand binding,M3 muscarinic receptor,over 50%
same,EC50,hM3Dq,6 nM
same,competitive inhibition of ligand binding,[3]; 10 μM compound,over 50%
same,Ki,[3]; bound stated in discussion,< 100 nM
same,competitive inhibition of ligand binding,α2A adrenoreceptor,over 50%
same,times less potent than CLZ at hM4Di,hM4Di; ratio of EC50 values,~20 times
same,times less potent than Cmpd-21 at hM4Di,hM4Di; ratio of EC50 values,approximately 2.7 times
same,EC50,"hM4Di; reduction of Ca2+ oscillation frequency, hM4Di-transduced rat primary neurons, Hill fit, read-out: half maximal effective concentration (EC50) at hM4Di",8.1 nM
same,inhibition,PDE4D2,< 20%
same,inhibition,AChE,< 20%
same,EC50,[4],6300 nM
same,inhibition,COX1,< 20%
same,competitive inhibition of ligand binding,M2 muscarinic receptor,over 50%
same,inhibition,COX2,< 20%
